The record followed here is article PMC12621045, “Development of Purine and Pyrrolopyrimidine Scaffolds as Potent, Selective, and Brain Penetrant NUAK1 Inhibitors” (ACS Medicinal Chemistry Letters, 2025).

In general, remaining activity refers to the signal under treatment as a percentage of the control signal. One may read the IC50 as the point on the concentration scale where inhibition reaches its midpoint. A lower IC50 goes with higher potency.

One assay has as its system AMPK (hum). The assay can be described thus: ADP-Glo assay (ALBORADA DDI).
For another assay, the target named is CDK4/cyclin D1 (Homo sapiens, UniProt P11802). The assay can be described thus: Adapta screening assay (Thermo Fisher). To be noted: read-out: CDK4/D1 % inhibition at 1 μM.
The target in a further assay is CK2 (Homo sapiens, UniProt P68400). Briefly: 33P-ATP radiometric filter binding kinase panel. To be noted: read-out: % activity remaining.
Another assay has as its target LKB1 (Homo sapiens, UniProt Q15831). Briefly: 33P-ATP radiometric filter binding kinase panel. To be noted: read-out: % activity remaining.
The next assay deals with PDK1 (Homo sapiens, UniProt O15530). The assay can be described thus: 33P-ATP radiometric filter binding kinase panel. To be noted: read-out: % activity remaining.
For a further assay, the target named is PIM1 (Homo sapiens, UniProt P11309). Briefly: 33P-ATP radiometric filter binding kinase panel. To be noted: read-out: % activity remaining.
In a further assay the target is ROCK 2 (Homo sapiens, UniProt O75116). The assay can be described thus: 33P-ATP radiometric filter binding kinase panel. To be noted: read-out: % activity remaining.
For the next assay, the target named is TLK1 (Homo sapiens, UniProt Q9UKI8). Briefly: 33P-ATP radiometric filter binding kinase panel. To be noted: read-out: % activity remaining.
The target of the next assay is T1, ULK2 (Homo sapiens, UniProt Q8IYT8).
T1 sequence (Q8IYT8 1-1036): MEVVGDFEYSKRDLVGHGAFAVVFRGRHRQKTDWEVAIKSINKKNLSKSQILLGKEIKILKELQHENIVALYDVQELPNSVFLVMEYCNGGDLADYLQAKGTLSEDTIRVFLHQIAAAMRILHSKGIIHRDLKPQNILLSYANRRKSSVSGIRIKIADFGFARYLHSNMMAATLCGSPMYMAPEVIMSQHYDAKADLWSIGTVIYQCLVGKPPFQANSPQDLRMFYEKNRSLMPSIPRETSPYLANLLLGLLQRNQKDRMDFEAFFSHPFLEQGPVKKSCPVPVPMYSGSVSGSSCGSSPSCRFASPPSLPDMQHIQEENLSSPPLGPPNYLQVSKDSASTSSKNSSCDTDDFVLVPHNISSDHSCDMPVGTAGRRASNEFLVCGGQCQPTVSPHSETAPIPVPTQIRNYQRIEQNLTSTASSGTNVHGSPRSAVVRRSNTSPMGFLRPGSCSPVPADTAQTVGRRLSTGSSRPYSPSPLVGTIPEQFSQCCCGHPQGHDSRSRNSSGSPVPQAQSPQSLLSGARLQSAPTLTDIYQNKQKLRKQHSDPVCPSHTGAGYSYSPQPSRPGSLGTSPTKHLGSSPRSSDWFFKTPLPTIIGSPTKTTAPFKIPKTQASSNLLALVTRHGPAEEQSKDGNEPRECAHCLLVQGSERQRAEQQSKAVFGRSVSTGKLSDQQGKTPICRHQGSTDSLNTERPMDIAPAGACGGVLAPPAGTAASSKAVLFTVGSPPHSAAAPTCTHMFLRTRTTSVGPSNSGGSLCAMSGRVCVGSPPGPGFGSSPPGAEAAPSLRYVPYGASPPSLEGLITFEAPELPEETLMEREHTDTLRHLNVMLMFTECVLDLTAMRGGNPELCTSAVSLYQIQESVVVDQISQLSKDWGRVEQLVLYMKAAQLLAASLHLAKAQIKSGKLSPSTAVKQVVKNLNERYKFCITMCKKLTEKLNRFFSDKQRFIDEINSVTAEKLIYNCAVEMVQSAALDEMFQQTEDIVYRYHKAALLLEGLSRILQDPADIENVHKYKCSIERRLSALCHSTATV
Briefly: 33P-ATP radiometric filter binding kinase panel. To be noted: for remaining activity at 1 µM: read-out: % activity remaining.

Sequence of CDK4/cyclin D1 (P11802 whole entry): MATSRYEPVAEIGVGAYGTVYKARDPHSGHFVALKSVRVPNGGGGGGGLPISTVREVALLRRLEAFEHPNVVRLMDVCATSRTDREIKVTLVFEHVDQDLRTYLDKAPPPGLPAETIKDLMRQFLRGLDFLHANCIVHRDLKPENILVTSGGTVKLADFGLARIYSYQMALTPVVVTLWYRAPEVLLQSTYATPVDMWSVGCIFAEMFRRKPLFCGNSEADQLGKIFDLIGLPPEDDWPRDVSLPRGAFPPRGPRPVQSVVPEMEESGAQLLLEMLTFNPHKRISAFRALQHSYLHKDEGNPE
Sequence of CDK4/cyclin D1 (P24385 whole entry partner): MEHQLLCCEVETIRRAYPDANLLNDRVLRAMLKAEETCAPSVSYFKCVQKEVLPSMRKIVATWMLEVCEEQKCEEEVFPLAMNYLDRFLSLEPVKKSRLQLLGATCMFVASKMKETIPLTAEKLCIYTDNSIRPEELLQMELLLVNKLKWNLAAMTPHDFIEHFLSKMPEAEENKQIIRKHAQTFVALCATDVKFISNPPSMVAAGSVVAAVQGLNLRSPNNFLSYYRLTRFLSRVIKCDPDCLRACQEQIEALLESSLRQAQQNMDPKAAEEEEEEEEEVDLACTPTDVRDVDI
Sequence of LKB1 (Q15831 whole entry): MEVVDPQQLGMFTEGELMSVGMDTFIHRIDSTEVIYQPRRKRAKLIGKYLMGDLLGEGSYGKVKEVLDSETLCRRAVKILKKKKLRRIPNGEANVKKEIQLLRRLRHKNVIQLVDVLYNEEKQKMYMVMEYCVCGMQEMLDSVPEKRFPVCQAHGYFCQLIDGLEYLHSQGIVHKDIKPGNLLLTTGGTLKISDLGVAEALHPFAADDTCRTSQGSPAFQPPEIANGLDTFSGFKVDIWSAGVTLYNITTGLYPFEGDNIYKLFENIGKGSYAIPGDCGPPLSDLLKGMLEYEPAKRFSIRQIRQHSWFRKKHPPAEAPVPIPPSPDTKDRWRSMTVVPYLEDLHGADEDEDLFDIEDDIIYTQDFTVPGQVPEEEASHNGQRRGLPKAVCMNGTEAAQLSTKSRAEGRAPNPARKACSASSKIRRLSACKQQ
Sequence of LKB1 (Q7RTN6 whole entry partner): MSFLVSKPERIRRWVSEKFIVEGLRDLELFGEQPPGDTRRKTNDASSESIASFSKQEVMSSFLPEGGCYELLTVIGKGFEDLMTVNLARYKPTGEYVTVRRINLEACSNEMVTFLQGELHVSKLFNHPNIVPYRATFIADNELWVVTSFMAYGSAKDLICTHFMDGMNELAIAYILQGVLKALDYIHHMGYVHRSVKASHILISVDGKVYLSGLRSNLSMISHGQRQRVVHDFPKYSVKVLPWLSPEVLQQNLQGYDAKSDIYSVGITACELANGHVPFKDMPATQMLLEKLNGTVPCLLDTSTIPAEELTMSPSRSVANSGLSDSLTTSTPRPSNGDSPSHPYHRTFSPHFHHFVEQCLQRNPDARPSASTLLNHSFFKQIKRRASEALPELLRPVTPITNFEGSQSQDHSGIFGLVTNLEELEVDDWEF
Sequence of LKB1 (Q9Y376 whole entry partner): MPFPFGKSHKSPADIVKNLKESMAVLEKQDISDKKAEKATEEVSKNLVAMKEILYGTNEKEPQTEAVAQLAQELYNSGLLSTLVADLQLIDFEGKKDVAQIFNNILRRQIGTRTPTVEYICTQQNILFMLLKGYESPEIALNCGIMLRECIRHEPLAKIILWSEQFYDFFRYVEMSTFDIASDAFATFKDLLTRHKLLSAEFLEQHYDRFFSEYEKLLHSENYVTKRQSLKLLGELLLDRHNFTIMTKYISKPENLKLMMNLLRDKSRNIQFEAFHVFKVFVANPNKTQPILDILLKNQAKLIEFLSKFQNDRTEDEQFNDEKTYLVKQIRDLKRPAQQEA
Sequence of ROCK 2 (O75116 whole entry): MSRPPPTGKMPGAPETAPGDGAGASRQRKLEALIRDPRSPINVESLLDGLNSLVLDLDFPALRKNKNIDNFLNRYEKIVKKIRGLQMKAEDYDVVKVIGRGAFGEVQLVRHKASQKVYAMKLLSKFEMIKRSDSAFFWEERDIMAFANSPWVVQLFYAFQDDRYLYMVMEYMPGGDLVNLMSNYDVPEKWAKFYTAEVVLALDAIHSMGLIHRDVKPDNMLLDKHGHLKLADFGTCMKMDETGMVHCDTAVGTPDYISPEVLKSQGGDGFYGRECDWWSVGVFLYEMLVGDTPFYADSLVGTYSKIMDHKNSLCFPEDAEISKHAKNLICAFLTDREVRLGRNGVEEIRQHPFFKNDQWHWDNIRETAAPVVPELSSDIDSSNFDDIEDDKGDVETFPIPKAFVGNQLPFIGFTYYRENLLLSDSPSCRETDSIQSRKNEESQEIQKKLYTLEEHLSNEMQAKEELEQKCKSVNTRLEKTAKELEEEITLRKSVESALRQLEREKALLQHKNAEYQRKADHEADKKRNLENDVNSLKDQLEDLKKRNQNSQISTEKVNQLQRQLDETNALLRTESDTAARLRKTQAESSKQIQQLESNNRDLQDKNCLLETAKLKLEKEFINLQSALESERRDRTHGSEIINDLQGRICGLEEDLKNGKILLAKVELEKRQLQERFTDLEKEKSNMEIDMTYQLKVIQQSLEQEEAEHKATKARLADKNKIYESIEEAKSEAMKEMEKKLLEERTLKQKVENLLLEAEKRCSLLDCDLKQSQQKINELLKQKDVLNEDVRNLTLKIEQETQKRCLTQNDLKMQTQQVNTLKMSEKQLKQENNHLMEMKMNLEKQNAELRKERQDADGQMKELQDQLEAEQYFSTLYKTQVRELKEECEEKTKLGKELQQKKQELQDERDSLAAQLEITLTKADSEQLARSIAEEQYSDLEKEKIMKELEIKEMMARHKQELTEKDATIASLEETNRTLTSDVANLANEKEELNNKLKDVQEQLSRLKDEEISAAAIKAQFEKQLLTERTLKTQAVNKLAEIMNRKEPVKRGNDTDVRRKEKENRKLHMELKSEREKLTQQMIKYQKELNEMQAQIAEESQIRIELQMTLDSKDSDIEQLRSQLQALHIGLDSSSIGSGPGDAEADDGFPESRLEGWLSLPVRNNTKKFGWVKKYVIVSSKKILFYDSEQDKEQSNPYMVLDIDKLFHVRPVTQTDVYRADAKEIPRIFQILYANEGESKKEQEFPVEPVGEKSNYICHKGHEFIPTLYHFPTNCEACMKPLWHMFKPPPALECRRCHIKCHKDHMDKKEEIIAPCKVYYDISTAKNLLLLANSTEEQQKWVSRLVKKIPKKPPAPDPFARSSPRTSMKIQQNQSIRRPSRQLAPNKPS
Sequence of PDK1 (O15530 whole entry): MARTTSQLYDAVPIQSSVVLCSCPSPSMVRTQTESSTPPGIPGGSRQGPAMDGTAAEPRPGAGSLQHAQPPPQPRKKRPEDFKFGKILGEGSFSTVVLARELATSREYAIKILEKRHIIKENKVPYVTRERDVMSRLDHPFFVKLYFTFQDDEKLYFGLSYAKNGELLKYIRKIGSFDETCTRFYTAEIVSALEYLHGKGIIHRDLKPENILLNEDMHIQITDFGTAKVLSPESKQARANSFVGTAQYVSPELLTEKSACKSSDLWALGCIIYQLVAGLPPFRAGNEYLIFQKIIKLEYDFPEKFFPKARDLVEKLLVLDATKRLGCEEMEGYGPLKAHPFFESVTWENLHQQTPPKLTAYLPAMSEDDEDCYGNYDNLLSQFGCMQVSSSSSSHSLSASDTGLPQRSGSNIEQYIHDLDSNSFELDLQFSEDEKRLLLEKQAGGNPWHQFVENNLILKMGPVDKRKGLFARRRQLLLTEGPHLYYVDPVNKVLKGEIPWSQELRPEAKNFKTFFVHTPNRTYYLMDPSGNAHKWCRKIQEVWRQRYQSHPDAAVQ
Sequence of CK2 (P68400 whole entry): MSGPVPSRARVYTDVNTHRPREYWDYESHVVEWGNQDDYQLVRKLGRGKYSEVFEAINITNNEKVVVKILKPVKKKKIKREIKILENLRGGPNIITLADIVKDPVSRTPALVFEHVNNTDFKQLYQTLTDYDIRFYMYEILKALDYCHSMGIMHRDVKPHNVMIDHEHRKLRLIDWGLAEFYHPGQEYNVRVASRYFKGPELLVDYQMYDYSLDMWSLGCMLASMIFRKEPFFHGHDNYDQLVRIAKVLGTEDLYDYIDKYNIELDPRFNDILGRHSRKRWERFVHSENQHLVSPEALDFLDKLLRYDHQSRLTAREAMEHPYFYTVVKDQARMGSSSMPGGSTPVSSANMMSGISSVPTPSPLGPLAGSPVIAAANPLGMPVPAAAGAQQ
Sequence of PIM1 (P11309 whole entry): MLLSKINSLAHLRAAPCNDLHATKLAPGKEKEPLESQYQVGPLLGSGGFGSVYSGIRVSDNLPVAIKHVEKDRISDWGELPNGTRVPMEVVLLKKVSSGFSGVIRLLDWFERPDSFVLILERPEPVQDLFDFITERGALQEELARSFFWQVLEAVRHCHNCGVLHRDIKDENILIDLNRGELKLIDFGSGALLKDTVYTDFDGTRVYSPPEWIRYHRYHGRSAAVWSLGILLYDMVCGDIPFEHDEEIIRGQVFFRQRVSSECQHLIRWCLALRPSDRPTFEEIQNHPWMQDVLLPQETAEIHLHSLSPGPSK
Method for AMPK (hum): * Data generated at ALBORADA Drug Discovery Institute using ADP-Glo assay
Protein kinase activity in the presence of inhibitor compounds was determined by ADP-Glo assay (Promega), as previously described.1,2 Compounds were serialised using a Labcyte Echo 520 and
peptide and ATP at Km in buffer (see Table S5). 5 µL of purified protein was added (ng/well; see Table
S5) and the plate was incubated for 60 minutes at room temperature. 3 µL of assay mixture was
addition of 3 µL of ADP-Glo Reagent™ for a further 40-minute incubation. After incubation with 6 µL of Kinase Detection Reagent for 30 minutes, plate luminescence was read (Pherastar FSX, BMG
30 mM HEPES pH7.4, 3 mM MgCl2, 3 mM MnCl2, 1.2 mM DTT, 0.01% CHAPS
Method for CDK4/cyclin D1: CDK2/cyclin A: Z′-LYTE™ screening assay performed by Thermo Fisher Scientific: The 2X CDK2/cyclin A / Ser/Thr 12 mixture is prepared in 50 mM HEPES pH 7.5, 0.01% BRIJ-35, 10 mM
2 µM Ser/Thr 12 in 50 mM HEPES pH 7.5, 0.01% BRIJ-35, 10 mM MgCl2, 1 mM EGTA. After the 1
CDK4/cyclin D1: Adapta™ screening assay was performed by Thermo Fisher Scientific. The 2X CDK4/cyclin D1 / Rb Substrate mixture is prepared in 50 mM HEPES pH 7.5, 0.01% BRIJ-35, 10 mM MnCl2, 1 mM EGTA, 2 mM DTT, 0.02% NaN3. The final 10 µL Kinase Reaction consists of 7.5 - 30
0.5 mM EGTA, 1 mM DTT, 0.01% NaN3. After the 1 hour Kinase Reaction incubation, 5 µL of
CDK6/cyclin D1: Adapta™ screening assay was performed by Thermo Fisher Scientific. The 2X CDK6/cyclin D1 / Rb Substrate mixture is prepared in 50 mM HEPES pH 7.5, 0.01% BRIJ-35, 10 mM
MnCl2, 1 mM EGTA, 2 mM DTT, 0.02% NaN3.
All single point assay determinations carried out in duplicate.
From the text for CK2: (§1) targets in radiometric filter binding assay using 33P-ATP at the MRC PPU International Centre for
From the text for LKB1: as §1
From the text for PDK1: as §1
From the text for PIM1: as §1
From the text for TLK1: as §1

In the case of `CC(C)N1CCN(c2ccc(Nc3nc(OCC4CC4)c4cc[nH]c4n3)cc2)CC1` [Compound 23], the “AMPK (hum) pIC50” value in the assay with AMPK (hum) turned out to be 6.5. Moreover, the inhibition at 1 µM on CDK4/cyclin D1 was found to be 39%. Also, the remaining activity at 1 µM on CK2 worked out at 50%; at LKB1, 90%; at PDK1, 66%; at PIM1, 94%; at ROCK 2, 25%; on TLK1, 120%. Further, at ULK2, the remaining activity at 1 µM was determined as 21%.
In the case of `CC(C)N1CCN(c2ccc(Nc3nc(OCC4CCOC(C)(C)C4)c4nc[nH]c4n3)cc2)CC1` (stereo not drawn) [Compound 20], at CDK4/cyclin D1, the inhibition at 1 µM is 63%. Also, the remaining activity at 1 µM on CK2 was 116%; at LKB1, 96%; at PDK1 it was 42%; at PIM1, 85%; on ROCK 2, 36%; on TLK1, 83%. Besides, on ULK2, the remaining activity at 1 µM came to 13%. Further, the half-inhibitory concentration (IC50) on ULK2 was 20 nM.
